Measurements: PubChem BioAssay AID220 (DTP/NCI, 2004)
Where “and” joins values, the source holds several entries; their conditions need not be identical. Equal values may be shown once. Records with an inconclusive call do not appear.

Test system: CD8F1 mice, subcutaneous mammary adenocarcinoma, T/C%
Assay: NCI In Vivo Anticancer Drug Screen. Data for tumor model Mammary Adenocarcinoma CD8F1 (subcutaneous) in CD8F1
Conditions: higher = larger tumour
How it was run: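 Ratio of treated to vehicle-control outcome, based on either survival or tumor size, in mice bearing transplantable tumors given the test compound.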

[1] = endpoint: mean tumor weight, dose: 100.0 mg/kg/injection, schedule: Q01DX009 (ip), vehicle: saline
[2] = endpoint: median tumor weight (est.), dose: 100.0 mg/kg/injection, schedule: Q07DX005 (ip), vehicle: Klucel (hydroxypropylcellulose) (HPC)
[3] = endpoint: median tumor weight (est.), dose: 200.0 mg/kg/injection, schedule: Q07DX005 (ip), vehicle: Klucel (hydroxypropylcellulose) (HPC)
[4] = endpoint: median tumor weight (est.), dose: 400.0 mg/kg/injection, schedule: Q07DX005 (ip), vehicle: Klucel (hydroxypropylcellulose) (HPC)
[5] = endpoint: median tumor weight change, dose: 125.0 mg/kg/injection, schedule: Q01DX001 (ip), vehicle: water
[6] = endpoint: median tumor weight (est.), dose: 50.0 mg/kg/injection, schedule: Q07DX005 (ip), vehicle: saline with Tween-80
[7] = endpoint: median tumor weight (est.), dose: 100.0 mg/kg/injection, schedule: Q07DX005 (ip), vehicle: saline with Tween-80
[8] = endpoint: median tumor weight change, dose: 125.0 mg/kg/injection, schedule: Q01DX001 (ip), vehicle: saline with Tween-80
[9] = endpoint: median tumor weight change, dose: 250.0 mg/kg/injection, schedule: Q01DX001 (ip), vehicle: saline with Tween-80
[10] = endpoint: median tumor weight (est.), dose: 25.0 mg/kg/injection, schedule: Q07DX005 (ip), vehicle: Klucel (hydroxypropylcellulose) (HPC)

C[C@]12C=CC(=O)C=C1CC[C@@H]1[C@@H]2C(=O)C[C@@]2(C)[C@H]1CC[C@]2(O)C(=O)CO
T/C (endpoint: mean tumor weight, dose: 25.0 mg/kg/injection, schedule: Q01DX009 (ip), vehicle: saline): 173 % of control | T/C (endpoint: mean tumor weight, dose: 37.5 mg/kg/injection, schedule: Q07DX006 (ip), vehicle: saline): 37 % of control | T/C (endpoint: mean tumor weight, dose: 75.0 mg/kg/injection, schedule: Q07DX005 (ip), vehicle: saline): 93 % of control | T/C (endpoint: mean tumor weight, dose: 75.0 mg/kg/injection, schedule: Q07DX006 (ip), vehicle: saline): 42 % of control | T/C (endpoint: mean tumor weight, dose: 75.0 mg/kg/injection, schedule: Q07DX007 (ip), vehicle: saline): 10 % of control | T/C [1]: 61 % of control | T/C (endpoint: mean tumor weight, dose: 150.0 mg/kg/injection, schedule: Q07DX005 (ip), vehicle: saline): 95 % of control | T/C (endpoint: mean tumor weight, dose: 150.0 mg/kg/injection, schedule: Q07DX006 (ip), vehicle: saline): 23 % of control | T/C (endpoint: mean tumor weight, dose: 200.0 mg/kg/injection, schedule: Q07DX005 (ip), vehicle: saline): 9 % of control | T/C (endpoint: mean tumor weight, dose: 300.0 mg/kg/injection, schedule: Q07DX006 (ip), vehicle: saline): 6 % of control | T/C (endpoint: mean tumor weight, dose: 400.0 mg/kg/injection, schedule: Q07DX005 (ip), vehicle: saline): 21 % of control | T/C (endpoint: mean tumor weight, dose: 800.0 mg/kg/injection, schedule: Q07DX005 (ip), vehicle: saline): 1 % of control | T/C [2]: 33 % of control | T/C [3]: 26 % of control | T/C [4]: 15 % of control | T/C (endpoint: median tumor weight (est.), dose: 800.0 mg/kg/injection, schedule: Q07DX005 (ip), vehicle: Klucel (hydroxypropylcellulose) (HPC)): 13 % of control

COC1OC(CO)C(O)C(NC(=O)N(C)N=O)C1O (centres undefined)
T/C (endpoint: median tumor weight change, dose: 125.0 mg/kg/injection, schedule: Q01DX001 (ip), vehicle: saline): 86 % of control

O=P(O)(NCCCl)NCCCl
T/C (endpoint: median tumor weight change, dose: 25.0 mg/kg/injection, schedule: Q01DX001 (ip), vehicle: saline): 49 % of control | T/C (endpoint: median tumor weight change, dose: 50.0 mg/kg/injection, schedule: Q01DX001 (ip), vehicle: saline): 97 % of control | T/C (endpoint: median tumor weight change, dose: 50.0 mg/kg/injection, schedule: Q01DX001 (ip), vehicle: suspension in saline): -39 % of control | T/C (endpoint: median tumor weight change, dose: 100.0 mg/kg/injection, schedule: Q01DX001 (ip), vehicle: saline): 41 % of control | T/C (endpoint: median tumor weight change, dose: 200.0 mg/kg/injection, schedule: Q01DX001 (ip), vehicle: saline): -56 % of control

NC(=O)c1csc(C2OC(CO)C(O)C2O)n1 (centres undefined)
T/C [5]: 87 % of control and 96 % of control | T/C (endpoint: median tumor weight change, dose: 500.0 mg/kg/injection, schedule: Q01DX001 (ip), vehicle: water): 11 % of control and 35 % of control | T/C (endpoint: median tumor weight change, dose: 2000.0 mg/kg/injection, schedule: Q01DX001 (ip), vehicle: water): 55 % of control

CCN(CC)CCN1C(=O)C2C3C=CC(C2C1=O)C1C2C(=O)N(CCN(CC)CC)C(=O)C2C31 (centres undefined)
T/C (endpoint: median tumor weight change, dose: 15.62 mg/kg/injection, schedule: Q01DX001 (ip), vehicle: water): 106 % of control | T/C (endpoint: median tumor weight change, dose: 31.25 mg/kg/injection, schedule: Q01DX001 (ip), vehicle: water): 111 % of control | T/C (endpoint: median tumor weight change, dose: 62.5 mg/kg/injection, schedule: Q01DX001 (ip), vehicle: water): 88 % of control | T/C [5]: 92 % of control

CC1CN1C(=O)NCCCCCCNC(=O)N1CC1C (centres undefined)
T/C (endpoint: median tumor weight (est.), dose: 5.0 mg/kg/injection, schedule: Q07DX005 (ip), vehicle: Klucel (hydroxypropylcellulose) (HPC)): 75 % of control and 86 % of control | T/C (endpoint: median tumor weight (est.), dose: 10.0 mg/kg/injection, schedule: Q07DX005 (ip), vehicle: Klucel (hydroxypropylcellulose) (HPC)): 40 % of control and 55 % of control | T/C (endpoint: median tumor weight (est.), dose: 20.0 mg/kg/injection, schedule: Q07DX005 (ip), vehicle: Klucel (hydroxypropylcellulose) (HPC)): 6 % of control and 19 % of control

CSc1cc(=O)n2c3ccccc3c3ccnc1c32
T/C (endpoint: median tumor weight (est.), dose: 2.5 mg/kg/injection, schedule: Q07DX005 (ip), vehicle: saline with Tween-80): 77 % of control | T/C (endpoint: median tumor weight (est.), dose: 5.0 mg/kg/injection, schedule: Q07DX005 (ip), vehicle: saline with Tween-80): 74 % of control | T/C (endpoint: median tumor weight (est.), dose: 10.0 mg/kg/injection, schedule: Q07DX005 (ip), vehicle: saline with Tween-80): 74 % of control | T/C (endpoint: median tumor weight (est.), dose: 20.0 mg/kg/injection, schedule: Q07DX005 (ip), vehicle: saline with Tween-80): 65 % of control | T/C (endpoint: median tumor weight (est.), dose: 40.0 mg/kg/injection, schedule: Q07DX005 (ip), vehicle: saline with Tween-80): 119 % of control | T/C (endpoint: median tumor weight (est.), dose: 80.0 mg/kg/injection, schedule: Q07DX005 (ip), vehicle: saline with Tween-80): 59 % of control

Nc1nc(-c2cccc3ccccc23)cc2ccccc12
T/C [6]: 53 % of control | T/C [7]: 81 % of control | T/C (endpoint: median tumor weight (est.), dose: 200.0 mg/kg/injection, schedule: Q07DX005 (ip), vehicle: saline with Tween-80): 37 % of control

N#CCCSC(=S)C1CCCC1=N (centres undefined)
T/C [8]: 44 % of control | T/C [9]: 98 % of control | T/C (endpoint: median tumor weight change, dose: 500.0 mg/kg/injection, schedule: Q01DX001 (ip), vehicle: saline with Tween-80): 86 % of control and 108 % of control

O=C([CH-]C(=O)C(F)(F)F)c1ccccc1.O=C([CH-]C(=O)C(F)(F)F)c1ccccc1.O=C([CH-]C(=O)C(F)(F)F)c1ccccc1.O=C([CH-]C(=O)C(F)(F)F)c1ccccc1.[Eu+3].c1ccncc1
T/C (endpoint: median tumor weight (est.), dose: 12.5 mg/kg/injection, schedule: Q07DX005 (ip), vehicle: Klucel (hydroxypropylcellulose) (HPC)): 109 % of control | T/C [10]: 109 % of control | T/C (endpoint: median tumor weight (est.), dose: 50.0 mg/kg/injection, schedule: Q07DX005 (ip), vehicle: Klucel (hydroxypropylcellulose) (HPC)): 103 % of control | T/C [2]: 95 % of control | T/C [4]: 110 % of control

COc1cc2cc(c1Cl)N(C)C(=O)CC(OC(=O)CC(C)C)C1(C)OC1C(C)C1CC(O)(NC(=O)O1)C(OC)/C=C/C=C(C)C2 (centres undefined)
T/C (endpoint: median tumor weight (est.), dose: 18.7 micrograms/kg/injection, schedule: Q07DX005 (ip), vehicle: saline + alcohol): 76 % of control | T/C (endpoint: median tumor weight (est.), dose: 37.5 micrograms/kg/injection, schedule: Q07DX005 (ip), vehicle: saline + alcohol): 80 % of control | T/C (endpoint: median tumor weight (est.), dose: 75.0 micrograms/kg/injection, schedule: Q07DX005 (ip), vehicle: saline + alcohol): 85 % of control

OC(CBr)C(O)C(O)C(O)CBr (centres undefined)
T/C [1]: 164 % of control | T/C (endpoint: mean tumor weight, dose: 150.0 mg/kg/injection, schedule: Q01DX009 (ip), vehicle: saline): 89 % of control | T/C (endpoint: mean tumor weight, dose: 200.0 mg/kg/injection, schedule: Q01DX009 (ip), vehicle: saline): 69 % of control | T/C (endpoint: mean tumor weight, dose: 300.0 mg/kg/injection, schedule: Q01DX009 (ip), vehicle: saline): 49 % of control | T/C (endpoint: mean tumor weight, dose: 400.0 mg/kg/injection, schedule: Q01DX009 (ip), vehicle: saline): 53 % of control | T/C (endpoint: mean tumor weight, dose: 500.0 mg/kg/injection, schedule: Q01DX009 (ip), vehicle: saline): 38 % of control | T/C [10]: 49 % of control | T/C (endpoint: median tumor weight (est.), dose: 25.0 mg/kg/injection, schedule: Q07DX005 (ip), vehicle: saline): 84 % of control | T/C (endpoint: median tumor weight (est.), dose: 50.0 mg/kg/injection, schedule: Q07DX005 (ip), vehicle: saline): 32 % of control | T/C [2]: 31 % of control | T/C (endpoint: median tumor weight (est.), dose: 100.0 mg/kg/injection, schedule: Q07DX005 (ip), vehicle: saline): 41 % of control | T/C [3]: 2 % of control | T/C (endpoint: median tumor weight (est.), dose: 200.0 mg/kg/injection, schedule: Q07DX005 (ip), vehicle: saline): 28 % of control | T/C (endpoint: median tumor weight (est.), dose: 400.0 mg/kg/injection, schedule: Q07DX005 (ip), vehicle: saline): 7 % of control | T/C (endpoint: median tumor weight (est.), dose: 1200.0 mg/kg/injection, schedule: Q07DX005 (ip), vehicle: Klucel (hydroxypropylcellulose) (HPC)): 13 % of control | T/C (endpoint: median tumor weight change, dose: 150.0 mg/kg/injection, schedule: Q01DX001 (ip), vehicle: Klucel (hydroxypropylcellulose) (HPC)): 95 % of control | T/C (endpoint: median tumor weight change, dose: 300.0 mg/kg/injection, schedule: Q01DX001 (ip), vehicle: Klucel (hydroxypropylcellulose) (HPC)): 39 % of control | T/C (endpoint: median tumor weight change, dose: 600.0 mg/kg/injection, schedule: Q01DX001 (ip), vehicle: Klucel (hydroxypropylcellulose) (HPC)): 51 % of control

ClCc1ccc2ccccc2n1
T/C (endpoint: median tumor weight change, dose: 62.5 mg/kg/injection, schedule: Q01DX001 (ip), vehicle: saline with Tween-80): 69 % of control | T/C [8]: 54 % of control | T/C [9]: 76 % of control

CN=C(NC#N)NCCSCc1nc[nH]c1C
T/C (endpoint: median tumor weight change, dose: 250.0 mg/kg/injection, schedule: Q01DX001 (ip), vehicle: Klucel (hydroxypropylcellulose) (HPC)): 57 % of control

COC1=CC(=O)C(OC)=C(OC)C1=O
T/C (endpoint: median tumor weight (est.), dose: 6.25 mg/kg/injection, schedule: Q07DX005 (ip), vehicle: saline with Tween-80): 63 % of control | T/C (endpoint: median tumor weight (est.), dose: 12.5 mg/kg/injection, schedule: Q07DX005 (ip), vehicle: saline with Tween-80): 106 % of control | T/C (endpoint: median tumor weight (est.), dose: 25.0 mg/kg/injection, schedule: Q07DX005 (ip), vehicle: saline with Tween-80): 90 % of control | T/C [6]: 96 % of control | T/C [7]: 74 % of control
